Consider five compounds from patent US10640518B2, “Condensed heterocyclic compounds and pesticides” (Nissan Chemical Corporation, priority 2016, dated 2020).

What is called mortality is the share of the test organisms that died. A low value points to more survivors.

Common to all, as to format: in vivo
The subject of one assay is Spodoptera litura. Briefly: Insecticidal test on Spodoptera litura (cabbage leaf soaking). To be noted: 144 h, 500 ppm solution, cabbage leaves soaked, 3rd-instar larvae, 6 days after, 25° C. The protocol: Test Example 3: Insecticidal Test on Spodoptera litura
(§1) 10% emulsifiable concentrates (or 10% wettable powders) of compounds of the present invention were diluted with water containing a spreader to obtain 500 ppm solutions. Leaves of cabbage were soaked in the solutions for about 10 seconds. After the soaking, the leaves were dried in air and placed in dishes. In each dish, five 3rd-instar larvae of Spodoptera litura were released, and the dishes were covered with lids and placed in an incubator at 25° C. 6 days after, dead insects in the dishes were counted, and the mortality was calculated by using the same equation as in Test Example 1. The test was carried out in duplicate.

The subject of a further assay is Ctenocephalides felis. Briefly: Test on the effect on Ctenocephalides felis (thin film contact). To be noted: 96 h, application dose 10 μg/cm^2, adults, 4 days after the release, 25° C. The protocol: Test Example 11: Test on the Effect on Ctenocephalides felis
(§2) 3.5 mg of compounds of the present invention were diluted with 3.5 ml of acetone to obtain 1,000 ppm solutions. 350 μl of the solutions were applied to the bottoms and the side walls of glass containers with an inner wall surface area of 35 cm^2, and acetone was volatilized to prepare thin films of the compounds on the inner walls of the glass containers. Since the inner wall surface area of each glass container was 35 cm^2, the application dose was 10 μg/cm^2.
To each glass container, five adults (male and female) of Ctenocephalides felis were released, and the containers were covered with lids and placed in an incubator at 25° C. 4 days after the release of the fleas, dead fleas were counted, and the mortality was calculated by using the same equation as in Test Example 1.

In a further assay the test system is Plutella xylostella. Kind of assay: Insecticidal test on Plutella xylostella (cabbage leaf soaking). To be noted: 144 h, 500 ppm solution, cabbage leaves soaked, 3rd-instar larvae, 6 days after, 25° C. The protocol:
Test Example 2: Insecticidal Test on Plutella xylostella
as §1, with “Plutella xylostella” for “Spodoptera litura”

For another assay, the system named is Aedes albopictus. Kind of assay: Insecticidal test on Aedes albopictus (larvae in well plate). To be noted: final concentration 10 ppm, larvae one day after hatching, 3 days after, 25° C. The procedure:
Test Example 17: Insecticidal Test on Aedes albopictus
2 mg of compounds of the present invention were dissolved in 0.2 ml of dimethyl sulfoxide to prepare 1% (w/v) dimethyl sulfoxide solutions. 0.01 ml of the solutions were mixed with 0.99 ml of pure water to prepare 0.01% (w/v) solutions. To 0.3 ml plastic plates (Cellstar 96 well culture plates, manufactured by Greiner Bio-One International GmbH) as test plates, 0.09 ml of distilled water containing 30 larvae of Aedes albopictus one day after hatching was dropped, and 0.01 ml of the 0.01% (w/v) solutions were dropped so that the final concentration would be 10 ppm. The plates were covered with lids and placed in an incubator at 25° C. 3 days after, dead larvae were counted, and the mortality was calculated by using the same equation as in Test Example 1.

For the next assay, the system named is Rhipicephalus sanguineus. Kind of assay: Test on the effect on Rhipicephalus sanguineus (thin film contact). To be noted: 96 h, application dose 10 μg/cm^2, protonymphs, 4 days after the release, 25° C. The procedure: Test Example 10: Test on the Effect on Rhipicephalus sanguineus
as §2
To each glass container, five protonymphs (male and female) of Rhipicephalus sanguineus were released, and the containers were covered with lids and placed in an incubator at 25° C. 4 days after the release of the ticks, dead ticks were counted, and the mortality was calculated by using the same equation as in Test Example 1.

For the next assay, the system named is Culex pipiens molestus. Briefly: Insecticidal test on Culex pipiens molestus (larvae in well plate). To be noted: 24 h. The protocol:
Test Example 16: Insecticidal Test on Culex pipiens molestus
2 mg of compounds of the present invention were dissolved in 0.2 ml of dimethyl sulfoxide to prepare 1% (w/v) dimethyl sulfoxide solutions. The solutions were diluted with distilled water by a factor of 100 to prepare 100 ppm solutions. To 1.9 ml plastic plates (Cellstar 24 well plate, manufactured by Greiner Bio-One International GmbH) as test plates, 0.7 ml of water containing 10 to 30 larvae of Culex pipiens molestus one day after hatching, and 0.2 ml of an aqueous suspension of aquarium fish food (TetraMin manufactured by Spectrum Brands Japan) as bait, were dropped. 0.1 ml of the 100 ppm solutions were dropped, and the plates were placed in an incubator at 25° C. 1 day after, dead larvae were counted, and the mortality was calculated by using the same equation as in Test Example 1. The test was carried out in duplicate.

The test system of another assay is Reticulitermes speratus. Kind of assay: Insecticidal test on Reticulitermes speratus (treated river sand). The settings on record: 240 h, 0.5 ml of 100 ppm solution on 10 g river sand, adults, 10 days after, 25° C. The procedure:
Test Example 15: Insecticidal Test on Reticulitermes speratus
10% emulsifiable concentrates of the compounds of the present invention were prepared. The emulsifiable concentrates were diluted with water to prepare 100 ppm solutions. 0.5 ml of the solutions were dropped on 10 g of river sand and mixed. In dishes having an inner diameter of 4 cm, 1% agar (2 cm square) was laid, and the treated river sand and a filter paper piece as bait were placed. Adults of Reticulitermes speratus were released in the dishes, and the dishes were placed in an incubator at 25° C. 10 days after, dead insects in the dishes were counted, and the mortality was calculated by using the same equation as in Test Example 1. The test was carried out in duplicate.

In a further assay the test system is Myzus persicae. Kind of assay: Insecticidal test on Myzus persicae (spray). To be noted: 144 h, 500 ppm solution sprayed (2.5 mg/cm^2), apterous adults on cabbage leaves, 6 days after, 25° C. The protocol: Test Example 5: Insecticidal Test on Myzus persicae
Wet absorbent cotton was laid on glass dishes having an inner diameter of 3 cm, and covered with leaves of cabbage cut into circles having a diameter of 3 cm, and 4 apterous adults of Myzus persicae were released. After a day, 10% emulsifiable concentrates (or 10% wettable powders) of compounds of the present invention were diluted with water containing a spreader to obtain 500 ppm solutions. The solutions were sprayed from a rotary spray tower (2.5 mg/cm^2), and the dishes were covered with lids and placed in an incubator at 25° C. 6 days after, dead insects were counted, and the mortality was calculated by using the same equation as in Test Example 1. The test was carried out in duplicate.

Assay [1] has as its system Nilaparvata lugens. Briefly: Systemic insecticidal test on Nilaparvata lugens (root dipping). To be noted: 20 ppm solution, rice seedling roots dipped 7 days, 3rd-instar larvae, 6 days after the release. The procedure:
Test Example 7: Systemic Insecticidal Test on Nilaparvata lugens
10% emulsifiable concentrates of compounds of the present invention were diluted with tap water to obtain 20 ppm solutions, and root of rice plug seedlings (at the 2-leaf stage) were dipped in the solutions. 7 days after, the rice seedlings were picked and put in test tubes, and in each tube, five 3rd-instar larvae of Nilaparvata luqens were released, and the tubes were capped with sponge and placed in an incubator at 25° C. 6 days after the release of the insects, dead insects were counted, the and the mortality was calculated by using the same equation as in Test Example 1. The test was carried out in duplicate.

The test system of assay [2] is Frankliniella occidentalis. Briefly: Insecticidal activity on Frankliniella occidentalis (spray on kidney bean leaves). The settings on record: 48 h, 500 ppm solution sprayed (2.5 mg/cm^2), larvae on kidney bean leaves, 2 days after. The protocol:
Test Example 4: Insecticidal Activity on Frankliniella occidentalis
In styrol cups having an inner diameter of 7 cm, wet filter paper was laid, kidney bean leaves cut into a 3 cm square were laid on the paper, and each leaf was inoculated with 20 larvae of Frankliniella occidentalis. 10% emulsifiable concentrates (or 10% wettable powders) of compounds of the present invention were diluted with water containing a spreader to obtain 500 ppm solutions. 2.5 ml of the solutions were sprayed from a rotary spray tower into the styrol cups (2.5 mg/cm^2). 2 days after, dead insects were counted, and the insect damage degree on kidney bean leaves was examined. The mortality was calculated by using the same equation as in Test Example 1. The insect damage degree was evaluated from the proportion of the area with insect damage on the leaves, as follows. 1: 0 to 20% insect damage, 2: 20 to 50% insect damage, 3: 50 to 70% insect damage, and 4: 70% or higher insect damage. The test was carried out in duplicate.

For assay [3], the system named is Nilaparvata lugens. Briefly: Insecticidal test on Nilaparvata lugens (rice sheath soaking). The settings on record: 144 h, 500 ppm solution, rice sheaths soaked, 3rd-instar larvae, 6 days after, 25° C. The protocol: Test Example 1: Insecticidal Test on Nilaparvata lugens
10% emulsifiable concentrates (or 10% wettable powders) of compounds of the present invention were diluted with water containing a spreader to obtain 500 ppm solutions. Rice sheaths were soaked in the solutions for about 10 seconds. After the soaking, the rice sheaths were dried in air and put in test tubes. In each tube, five 3rd-instar larvae of Nilaparvata luqgens were released, and the tubes were capped with sponge and placed in an incubator at 25° C. 6 days after, dead insects in the test tubes were counted, and the mortality was calculated in accordance with the following equation. The test was carried out in duplicate. Mortality (%)=(the number of dead insects/the number of released insects)×100)

Molecules are shown by their SMILES. Bounds are passed on as bounds.

Consider `CCS(=O)(=O)c1c(-c2cn3nc(C(F)(F)C(F)(F)F)sc3n2)nn2ccc(C(F)(F)F)cc12` [1-5-001a, 6-[3-(ethylsulfonyl)-5-(trifluoromethyl)pyrazolo[1,5-a]pyridin-2-yl]-2-(perfluoroethyl)imidazo[2,1-b][1,3,4]thiadiazole], for which the mortality at 500 ppm in the assay on Spodoptera litura and in the assay with Plutella xylostella was at least 90% each time. In addition, the mortality at 10 µg/cm2 with Ctenocephalides felis and in the assay on Rhipicephalus sanguineus was at least 50% in each case. This compound showed a mortality at 10 ppm with Aedes albopictus of at least 70%.

In the case of `CCS(=O)(=O)c1c(-c2nc3cc(C(F)(F)F)cnc3n2C)nn2cc(Cl)ccc12` [1-1-001a, 2-[6-chloro-3-(ethylsulfonyl)pyrazolo[1,5-a]pyridin-2-yl]-3-methyl-6-(trifluoromethyl)-3H-imidazo[4,5-b]pyridine], the mortality at 100 ppm with Culex pipiens molestus is 100%; in the assay on Reticulitermes speratus, at least 70%. The mortality at 500 ppm in the assay on Myzus persicae, with Spodoptera litura and with Plutella xylostella was at least 90% in each case. The mortality at 10 µg/cm2 in the assay on Ctenocephalides felis and in the assay on Rhipicephalus sanguineus was at least 50% each time. In the assay on Nilaparvata lugens [1], this compound came in with a mortality at 20 ppm of at least 90%. Besides, the mortality at 10 ppm with Aedes albopictus was at least 70%.

Take `CCS(=O)(=O)c1c(-c2cn3cnc(C(F)(F)C(F)(F)F)cc3n2)nn2ccc(C(F)(F)F)cc12` [1-3-001a, 2-[3-(ethylsulfonyl)-5-(trifluoromethyl)pyrazolo[1,5-a]pyridin-2-yl]-7-(perfluoroethyl)imidazo[1,2-c]pyrimidine]: the mortality at 500 ppm in the assay on Spodoptera litura is at least 90%; in [2], at least 50%; in the assay with Plutella xylostella it was at least 90%. The mortality at 10 µg/cm2 in the assay with Ctenocephalides felis and in the assay on Rhipicephalus sanguineus was at least 50% each time. The compound further registered a mortality at 10 ppm in the assay with Aedes albopictus of at least 70%.

`CCS(=O)(=O)c1c2ccc(C(F)(F)F)cc2nn1-c1nc2cc(C(F)(F)F)cnc2n1C` [1-10-001a, 2-[3-(ethylsulfonyl)-6-(trifluoromethyl)-2H-indazol-2-yl]-3-methyl-6-(trifluoromethyl)-3H-imidazo[4,5-b]pyridine]: the mortality at 500 ppm in the assay with Nilaparvata lugens [3], in the assay on Myzus persicae, with Spodoptera litura and in the assay with Plutella xylostella was at least 90% throughout. This compound displayed a mortality at 100 ppm in the assay on Reticulitermes speratus of at least 70%. Further, the mortality at 10 µg/cm2 with Ctenocephalides felis is at least 50%. Besides, the mortality at 20 ppm in the assay on Nilaparvata lugens [1] was at least 90%.

On to `CCS(=O)(=O)c1c(-c2nc3cc(C(F)(F)F)cnc3n2C)nn2cc(-n3ccc(C(F)(F)F)n3)ccc12` [1-1-003a, 2-[3-(ethylsulfonyl)-6-(3-(trifluoromethyl)-1H-pyrazol-1-yl)pyrazolo[1,5-a]pyridin-2-yl]-3-methyl-6-(trifluoromethyl)-3H-imidazo[4,5-b]pyridine], for which the mortality at 500 ppm in the assay with Spodoptera litura and in the assay on Plutella xylostella was at least 90% in each case. The compound further came in with a mortality at 10 µg/cm2 in the assay on Ctenocephalides felis of at least 50%. Also, the mortality at 10 ppm with Aedes albopictus is at least 70%.
